Measured values as given in ChEMBL document CHEMBL1144754, “Formation of fluorine-18 labeled diaryl ureas--labeled VEGFR-2/PDGFR dual inhibitors as molecular imaging agents for angiogenesis” (Bioorg Med Chem, 2008).

Columns and labels:
Plasma = assay: Ex vivo stability in human plasma assessed as radioactivity at 300 uCi upto 120 hrs; format: ADME, cell-free
[1] = target: Receptor tyrosine-protein kinase erbB-2 (Homo sapiens, UniProt P04626); assay: Inhibition of Her2 expressed in CSH12 cells by Western blot analysis; format: cell-based
[2] = target: Epidermal growth factor receptor (Homo sapiens, UniProt P00533); assay: Inhibition of EGFR expressed in DHER14 cells by Western blot analysis; format: cell-based
[3] = target: Insulin-like growth factor 1 receptor (Homo sapiens, UniProt P08069); assay: Inhibition of IGF1R by ELISA
[4] = Inhibition of PDGFR expressed in NIH cells by Western blot analysis; format: cell-based
[5] = Inhibition of VEGFR expressed in PAE cells by Western blot analysis; format: cell-based

Sequence of Epidermal growth factor receptor (P00533 whole entry): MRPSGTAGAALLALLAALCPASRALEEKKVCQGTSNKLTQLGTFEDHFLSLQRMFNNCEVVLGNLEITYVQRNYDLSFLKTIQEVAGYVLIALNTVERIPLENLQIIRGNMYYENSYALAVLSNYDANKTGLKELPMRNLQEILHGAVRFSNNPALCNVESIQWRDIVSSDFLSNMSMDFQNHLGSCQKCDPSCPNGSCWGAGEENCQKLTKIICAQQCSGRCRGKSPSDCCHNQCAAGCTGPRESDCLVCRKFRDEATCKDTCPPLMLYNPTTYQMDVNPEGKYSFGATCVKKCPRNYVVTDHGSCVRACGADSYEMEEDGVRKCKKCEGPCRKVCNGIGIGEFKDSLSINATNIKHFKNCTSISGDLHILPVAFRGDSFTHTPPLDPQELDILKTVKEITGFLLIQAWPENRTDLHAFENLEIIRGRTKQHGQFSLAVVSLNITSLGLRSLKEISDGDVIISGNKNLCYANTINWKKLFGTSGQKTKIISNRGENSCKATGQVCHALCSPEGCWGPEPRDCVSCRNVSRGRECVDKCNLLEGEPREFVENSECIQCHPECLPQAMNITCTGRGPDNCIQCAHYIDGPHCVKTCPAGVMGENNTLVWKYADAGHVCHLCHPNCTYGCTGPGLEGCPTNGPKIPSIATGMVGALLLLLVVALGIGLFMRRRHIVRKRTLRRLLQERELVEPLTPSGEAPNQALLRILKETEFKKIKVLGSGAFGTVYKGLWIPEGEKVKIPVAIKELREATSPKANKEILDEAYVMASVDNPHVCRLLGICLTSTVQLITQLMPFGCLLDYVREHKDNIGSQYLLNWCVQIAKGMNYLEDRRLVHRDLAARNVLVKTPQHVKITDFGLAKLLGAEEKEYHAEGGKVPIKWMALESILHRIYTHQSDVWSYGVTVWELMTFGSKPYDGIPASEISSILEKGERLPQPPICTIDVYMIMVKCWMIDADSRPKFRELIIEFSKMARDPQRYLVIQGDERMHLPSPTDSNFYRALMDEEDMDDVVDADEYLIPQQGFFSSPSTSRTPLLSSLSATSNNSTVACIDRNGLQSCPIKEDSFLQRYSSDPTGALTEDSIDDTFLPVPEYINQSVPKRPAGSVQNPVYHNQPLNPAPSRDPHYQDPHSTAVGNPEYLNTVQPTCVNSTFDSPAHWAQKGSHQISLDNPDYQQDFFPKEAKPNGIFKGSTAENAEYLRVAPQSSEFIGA
Sequence of Receptor tyrosine-protein kinase erbB-2 (P04626 whole entry): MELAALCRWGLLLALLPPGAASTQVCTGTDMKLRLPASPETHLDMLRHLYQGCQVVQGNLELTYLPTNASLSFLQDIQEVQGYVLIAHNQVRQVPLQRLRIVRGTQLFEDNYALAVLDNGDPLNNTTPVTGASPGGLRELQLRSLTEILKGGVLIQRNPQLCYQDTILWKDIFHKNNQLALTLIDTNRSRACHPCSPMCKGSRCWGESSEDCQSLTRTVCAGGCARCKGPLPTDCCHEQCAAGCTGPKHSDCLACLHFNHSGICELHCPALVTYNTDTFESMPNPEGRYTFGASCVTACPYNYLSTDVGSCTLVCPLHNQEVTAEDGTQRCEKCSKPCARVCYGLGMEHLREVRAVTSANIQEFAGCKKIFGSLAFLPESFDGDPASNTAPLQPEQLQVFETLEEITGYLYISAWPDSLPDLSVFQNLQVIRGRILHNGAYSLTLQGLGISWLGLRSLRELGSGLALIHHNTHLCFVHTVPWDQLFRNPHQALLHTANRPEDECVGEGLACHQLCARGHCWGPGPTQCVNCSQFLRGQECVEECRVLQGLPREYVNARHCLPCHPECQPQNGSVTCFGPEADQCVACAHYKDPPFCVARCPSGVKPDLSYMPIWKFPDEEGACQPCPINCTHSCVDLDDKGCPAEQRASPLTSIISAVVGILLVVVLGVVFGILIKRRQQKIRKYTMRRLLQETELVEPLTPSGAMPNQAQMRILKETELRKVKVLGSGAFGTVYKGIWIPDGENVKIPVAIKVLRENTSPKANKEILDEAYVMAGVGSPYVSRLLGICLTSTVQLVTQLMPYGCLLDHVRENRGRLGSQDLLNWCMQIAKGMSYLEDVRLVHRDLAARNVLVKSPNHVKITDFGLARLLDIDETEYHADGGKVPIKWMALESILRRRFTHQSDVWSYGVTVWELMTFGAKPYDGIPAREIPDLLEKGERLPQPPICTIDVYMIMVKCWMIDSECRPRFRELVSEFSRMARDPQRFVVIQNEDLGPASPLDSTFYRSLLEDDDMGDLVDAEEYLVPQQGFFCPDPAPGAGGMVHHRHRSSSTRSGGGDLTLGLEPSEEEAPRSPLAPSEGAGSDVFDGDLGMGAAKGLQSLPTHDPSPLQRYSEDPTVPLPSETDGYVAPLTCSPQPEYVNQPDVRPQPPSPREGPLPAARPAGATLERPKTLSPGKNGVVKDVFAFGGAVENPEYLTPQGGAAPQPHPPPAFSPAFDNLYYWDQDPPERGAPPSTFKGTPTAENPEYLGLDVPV
Sequence of Insulin-like growth factor 1 receptor (P08069 31-736 limits assumed): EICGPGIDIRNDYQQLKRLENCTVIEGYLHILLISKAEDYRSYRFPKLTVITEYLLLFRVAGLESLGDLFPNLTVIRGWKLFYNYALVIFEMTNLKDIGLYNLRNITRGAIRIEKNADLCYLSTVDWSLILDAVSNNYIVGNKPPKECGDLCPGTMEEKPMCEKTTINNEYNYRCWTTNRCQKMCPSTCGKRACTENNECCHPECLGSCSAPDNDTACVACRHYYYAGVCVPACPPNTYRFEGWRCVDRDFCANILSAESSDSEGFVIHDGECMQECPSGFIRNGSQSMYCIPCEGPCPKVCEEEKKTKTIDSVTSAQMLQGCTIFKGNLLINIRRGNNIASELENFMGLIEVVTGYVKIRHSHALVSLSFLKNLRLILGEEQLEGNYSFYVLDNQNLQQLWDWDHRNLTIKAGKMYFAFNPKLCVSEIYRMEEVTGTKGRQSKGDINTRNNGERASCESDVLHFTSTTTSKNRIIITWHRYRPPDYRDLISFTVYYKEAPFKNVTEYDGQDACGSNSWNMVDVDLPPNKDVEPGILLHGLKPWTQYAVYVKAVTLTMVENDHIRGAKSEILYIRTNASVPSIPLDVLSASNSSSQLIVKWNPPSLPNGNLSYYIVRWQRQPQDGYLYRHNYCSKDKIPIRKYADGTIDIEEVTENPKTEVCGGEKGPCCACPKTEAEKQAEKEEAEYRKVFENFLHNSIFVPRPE
Sequence of Insulin-like growth factor 1 receptor (P08069 741-1367 limits assumed): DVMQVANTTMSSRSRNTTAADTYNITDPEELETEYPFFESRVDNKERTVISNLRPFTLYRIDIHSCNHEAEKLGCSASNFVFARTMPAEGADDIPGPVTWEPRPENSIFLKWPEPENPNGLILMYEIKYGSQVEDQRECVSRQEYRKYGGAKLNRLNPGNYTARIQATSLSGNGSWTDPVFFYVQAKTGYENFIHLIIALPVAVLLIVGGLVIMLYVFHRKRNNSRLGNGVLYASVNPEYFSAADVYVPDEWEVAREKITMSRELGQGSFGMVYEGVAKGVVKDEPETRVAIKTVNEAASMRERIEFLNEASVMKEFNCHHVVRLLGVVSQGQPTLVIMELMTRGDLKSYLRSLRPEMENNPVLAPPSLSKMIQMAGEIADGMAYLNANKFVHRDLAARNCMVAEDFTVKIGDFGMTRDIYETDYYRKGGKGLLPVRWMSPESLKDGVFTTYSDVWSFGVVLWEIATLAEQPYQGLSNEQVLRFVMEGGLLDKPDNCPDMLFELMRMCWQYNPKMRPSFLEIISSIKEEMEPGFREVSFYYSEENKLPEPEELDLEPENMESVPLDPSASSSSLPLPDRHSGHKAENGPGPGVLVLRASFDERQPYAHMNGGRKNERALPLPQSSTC

Row | Stability (Plasma) | IC50 [1] | IC50 [2] | IC50 [3] | IC50 [4] | IC50 [5] | SMILES
1 | Stable |  |  |  |  |  | COc1cc2nccc(Oc3ccc(NC(=O)Nc4ccc([18F])cc4)cc3F)c2cc1OC
2 |  | > 500 nM | > 500 nM | > 2000 nM | 2 nM |  | COc1cc2nccc(Oc3ccc(NC(=O)Nc4ccc(F)cc4F)cc3F)c2cc1OC
3 |  | > 500 nM | > 500 nM | > 2000 nM | 2 nM | 8 nM | COc1cc2nccc(Oc3ccc(NC(=O)Nc4ccc(F)cc4)cc3F)c2cc1OC
4 |  | > 500 nM | > 500 nM | > 2000 nM | 2 nM | 4 nM | COc1cc2nccc(Oc3ccc(NC(=O)Nc4ccccc4F)cc3F)c2cc1OC
